Data taken from US20040127403A1, “Methods for treating and preventing Gram-positive bacteremias” (priority 2002, published 2004).
Where “and” joins values, the source holds several entries; their conditions need not be identical. Identical values can stand only once.

Tests used:
Assay in all cases: MIC, NCCLS broth microdilution
Format in all cases: cell-based
S. epidermidis ATCC12228 = details: S. epidermidis ATCC12228
Method in brief: (§1)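 Ramoplanin-containing broths (cation-adjusted Mueller-Hinton or trypticase soy) received 0.02% BSA so the drug would not stick to plastic. Minimum inhibitory concentrations were read per the NCCLS broth microdilution standard.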

E. faecium A6350 Line-R = system: E. faecium A6350 Line-R
Method in brief: as §1

E. faecium ATCC700221 = details: E. faecium ATCC700221
Method in brief: as §1

E. faecium A2735 Syn-R = system: E. faecium A2735 Syn-R
Method in brief: as §1

E. faecium 1836 = details: E. faecium 1836
Method in brief: as §1

E. faecium A6343 Line-R = system: E. faecium A6343 Line-R
Method in brief: as §1

E. gallinarum UA604 = system: E. gallinarum UA604
Method in brief: as §1

E. faecium A-5960 Line-R = details: Table 6, 2nd
Method in brief: as §1

E. faecium UA392 = details: E. faecium UA392
Method in brief: as §1

S. aureus ATCC19636 MSSA = system: S. aureus ATCC19636 MSSA
Method in brief: as §1

[1] = system: S. aureus ATCC700699 MRSA/VISA; details: S. aureus ATCC700699 MRSA/VISA
Method in brief: as §1

S. aureus ATCC43300 MRSA = system: S. aureus ATCC43300 MRSA
Method in brief: as §1

S. aureus ATCC12600 MRSA = system: S. aureus ATCC12600 MRSA
Method in brief: as §1

E. faecium A4192 Syn-R = system: E. faecium A4192 Syn-R
Method in brief: as §1

E. faecium A5959 Line-R = details: Table 6, 2nd
Method in brief: as §1

E. faecalis A7789 Line-R = details: Table 6, 1st
Method in brief: as §1

E. faecium A6345 Line-R = details: for MIC: E. faecium A6345 Line-R
Method in brief: as §1

E. faecalis ATCC29212 = details: E. faecalis ATCC29212
Method in brief: as §1

S. epidermidis ATCC35983 = details: S. epidermidis ATCC35983
Method in brief: as §1

E. faecalis ATCC51299 = details: E. faecalis ATCC51299
Method in brief: as §1

E. faecium A6349 Line-R = system: E. faecium A6349 Line-R
Method in brief: as §1

S. epidermidis ATCC14990 = details: S. epidermidis ATCC14990
Method in brief: as §1

S. aureus ATCC35556 MRSA = system: S. aureus ATCC35556 MRSA
Method in brief: as §1

Ramoplanin
MIC (S. epidermidis ATCC12228; CAMHB): 0.5, 0.5 μg/ml
MIC (S. epidermidis ATCC12228; TSB): 1, 1 μg/ml
MIC (S. epidermidis ATCC12228; Table 6, 1st): 1 µg/mL
MIC (S. epidermidis ATCC12228; Table 6, 2nd): 0.25 µg/mL
MIC (E. faecium A6350 Line-R; CAMHB): 0.25, 0.25 μg/ml
MIC (E. faecium A6350 Line-R; TSB): 0.5, 0.5 μg/ml
MIC (E. faecium A6350 Line-R; Table 6, 1st): 0.25 µg/mL
MIC (E. faecium A6350 Line-R; Table 6, 2nd): 0.25 µg/mL
MIC (E. faecium ATCC700221; CAMHB): 0.25, 0.25 μg/ml
MIC (E. faecium ATCC700221; TSB): 0.5, 0.5 μg/ml
MIC (E. faecium ATCC700221; Table 6, 1st): 0.25 µg/mL
MIC (E. faecium ATCC700221; Table 6, 2nd): 0.25 µg/mL
MIC (E. faecium A2735 Syn-R; CAMHB): 0.25, 0.25 μg/ml
MIC (E. faecium A2735 Syn-R; TSB): 0.5, 0.5 μg/ml
MIC (E. faecium A2735 Syn-R; Table 6, 1st): 0.25 µg/mL
MIC (E. faecium A2735 Syn-R; Table 6, 2nd): 0.25 µg/mL
MIC (E. faecium 1836; CAMHB): 0.5, 0.5 μg/ml
MIC (E. faecium 1836; TSB): 0.5, 0.5 μg/ml
MIC (E. faecium 1836; Table 6, 1st): 0.25 µg/mL
MIC (E. faecium 1836; Table 6, 2nd): 0.5 µg/mL
MIC (E. faecium A6343 Line-R; CAMHB): 0.25, 0.25 μg/ml
MIC (E. faecium A6343 Line-R; TSB): 0.25, 0.25 μg/ml
MIC (E. faecium A6343 Line-R; Table 6, 1st): 0.125 µg/mL
MIC (E. faecium A6343 Line-R; Table 6, 2nd): 0.25 µg/mL
MIC (E. gallinarum UA604; CAMHB): 0.125, 0.125 μg/ml
MIC (E. gallinarum UA604; TSB): 0.25, 0.25 μg/ml
MIC (E. gallinarum UA604; Table 6, 1st): 0.06 µg/mL
MIC (E. gallinarum UA604; Table 6, 2nd): 0.125 µg/mL
MIC (E. faecium A-5960 Line-R): 0.25 µg/mL
MIC (E. faecium UA392; CAMHB): 0.25, 0.25 μg/ml
MIC (E. faecium UA392; TSB): 0.25, 0.25 μg/ml
MIC (E. faecium UA392; Table 6, 1st): 0.125 µg/mL
MIC (E. faecium UA392; Table 6, 2nd): 0.25 µg/mL
MIC (S. aureus ATCC19636 MSSA; CAMHB): 0.5, 0.5 μg/ml
MIC (S. aureus ATCC19636 MSSA; TSB): 0.25, 0.25 μg/ml
MIC (S. aureus ATCC19636 MSSA; Table 6, 1st): 1 µg/mL
MIC (S. aureus ATCC19636 MSSA; Table 6, 2nd): 1 µg/mL
MIC ([1]; CAMHB): 0.5 µg/mL and 0.25 µg/mL
MIC ([1]; TSB): 0.25, 0.25 μg/ml
MIC ([1]; Table 6, 1st): 1 µg/mL
MIC ([1]; Table 6, 2nd): 0.5 µg/mL
MIC (S. aureus ATCC43300 MRSA; S. aureus ATCC43300 MRSA/VISA, Table 6, 1st): 2 µg/mL
MIC (S. aureus ATCC43300 MRSA; S. aureus ATCC43300 MRSA/VISA, Table 6, 2nd): 0.25 µg/mL
MIC (S. aureus ATCC43300 MRSA; S. aureus ATCC43300 MRSA, CAMHB): 1, 1 μg/ml
MIC (S. aureus ATCC43300 MRSA; S. aureus ATCC43300 MRSA, TSB): 0.5, 0.5 μg/ml
MIC (S. aureus ATCC12600 MRSA; CAMHB): 0.5, 0.5 μg/ml
MIC (S. aureus ATCC12600 MRSA; TSB): 0.5, 0.5 μg/ml
MIC (S. aureus ATCC12600 MRSA; Table 6, 1st): 1 µg/mL
MIC (S. aureus ATCC12600 MRSA; Table 6, 2nd): 0.5 µg/mL
MIC (E. faecium A4192 Syn-R; CAMHB): 0.25, 0.25 μg/ml
MIC (E. faecium A4192 Syn-R; TSB): 0.5, 0.5 μg/ml
MIC (E. faecium A4192 Syn-R; Table 6, 1st): 0.25 µg/mL
MIC (E. faecium A4192 Syn-R; Table 6, 2nd): 0.5 µg/mL
MIC (E. faecium A5959 Line-R): 0.25 µg/mL
MIC (E. faecalis A7789 Line-R): 0.06 µg/mL
reference MIC for strains used for killing curve (E. faecium A6345 Line-R; E. faecium A6345 Line-R. as printed, second row of Table 3): 0.25 µg/mL
reference MIC for strains used for killing curve (E. faecium A6345 Line-R; E. faecium A6345 Line-R., first row of Table 3): 0.25 µg/mL
MIC (E. faecium A6345 Line-R; CAMHB): 0.125, 0.125 μg/ml
MIC (E. faecium A6345 Line-R; TSB): 0.25, 0.25 μg/ml
MIC (E. faecium A6345 Line-R; Table 6, 1st): 0.125 µg/mL
MIC (E. faecium A6345 Line-R; Table 6, 2nd): 0.25 µg/mL
MIC (E. faecalis ATCC29212; CAMHB): 0.5, 0.5 μg/ml
MIC (E. faecalis ATCC29212; TSB): 0.5, 0.5 μg/ml
MIC (E. faecalis ATCC29212; Table 6, 1st): 0.25 µg/mL
MIC (E. faecalis ATCC29212; Table 6, 2nd): 0.5 µg/mL and 0.25 µg/mL
MIC (S. epidermidis ATCC35983; CAMHB): 0.5, 0.5 μg/ml
MIC (S. epidermidis ATCC35983; TSB): 2 µg/mL and 1 µg/mL
MIC (S. epidermidis ATCC35983; Table 6, 2nd): 0.5 µg/mL
MIC (E. faecalis ATCC51299; CAMHB): 0.5, 0.5 μg/ml
MIC (E. faecalis ATCC51299; TSB): 0.5, 0.5 μg/ml
MIC (E. faecalis ATCC51299; Table 6, 1st): 0.25 µg/mL
MIC (E. faecalis ATCC51299; Table 6, 2nd): 0.5 µg/mL
MIC (E. faecium A6349 Line-R; Table 6, 1st): 0.125 µg/mL
MIC (E. faecium A6349 Line-R; Table 6, 2nd): 0.25 µg/mL
MIC (S. epidermidis ATCC14990; CAMHB): 0.5, 0.5 μg/ml
MIC (S. epidermidis ATCC14990; TSB): 0.5, 0.5 μg/ml
MIC (S. epidermidis ATCC14990; Table 6, 1st): 0.5 µg/mL
MIC (S. epidermidis ATCC14990; Table 6, 2nd): 0.25 µg/mL
MIC (S. aureus ATCC35556 MRSA; CAMHB): 0.5, 0.5 μg/ml
MIC (S. aureus ATCC35556 MRSA; TSB): 0.125, 0.125 μg/ml
MIC (S. aureus ATCC35556 MRSA; Table 6, 1st): 1 µg/mL
MIC (S. aureus ATCC35556 MRSA; Table 6, 2nd): 0.5 µg/mL
